Source: the supplement of paper PMC10307832

What was measured:
Test in all cases: relative viability (nuclei count vs DMSO), 5 days (fraction); higher = more cells survive
LXF-289 = test system: LXF-289
In short: (§1)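 After 5 days of treatment, lung cancer cells in 1536-well plates were fixed and stained in a single step (final 0.05% Triton X-100, 1% formaldehyde, 1 ug/ml Hoechst) and their nuclei counted on 4× images. Treatment had been applied by pin tool the day after seeding as one drug alone or as a fixed anchor-drug dose with five library-drug doses (not always all listed) in √10 steps. Relative viability is the nuclei count of treated wells divided by that of vehicle wells, and values are medians of duplicate plates.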

NCI-H358 = test system: NCI-H358
In short: as §1

NCI-H1651 = test system: NCI-H1651
In short: as §1

EMC-BAC-2 = test system: EMC-BAC-2
In short: as §1

NCI-H2126 = test system: NCI-H2126
In short: as §1

NCI-H1793 = test system: NCI-H1793
In short: as §1

EKVX = test system: EKVX
In short: as §1

UMC-11 = test system: UMC-11
In short: as §1

A-427 = test system: A-427
In short: as §1

NCI-H3122 = test system: NCI-H3122
In short: as §1

NCI-H2023 = test system: NCI-H2023
In short: as §1

NCI-H322M = test system: NCI-H322M
In short: as §1

SW 1573 = test system: SW 1573
In short: as §1

EPLC-272H = test system: EPLC-272H
In short: as §1

BEN = test system: BEN
In short: as §1

HCC-44 = test system: HCC-44
In short: as §1

NCI-H596 = test system: NCI-H596
In short: as §1

LCLC-103H = test system: LCLC-103H
In short: as §1

NCI-H2087 = test system: NCI-H2087
In short: as §1

NCI-H1650 = test system: NCI-H1650
In short: as §1

SK-LU-1 = test system: SK-LU-1
In short: as §1

COR-L23 = test system: COR-L23
In short: as §1

201T = test system: 201T
In short: as §1

Question: `C=C1C(=O)O[C@@H](CCCCCCCC)[C@@H]1C(=O)O` [C-75] + O=C(CCCCCCC(=O)Nc1ccccc1)NO [Vorinostat] (partner 1 µM) was tested. Which relative viability (LXF-289; first compound 0.08 µM) did it give?
Answer: 0.716

Question: And the relative viability (LXF-289; first compound 0.253 µM)?
Answer: 0.927

Question: And the relative viability (LXF-289; first compound 0.8 µM)?
Answer: 0.742

Question: What about the relative viability (LXF-289; first compound 2.53 µM) of the same compound?
Answer: 0.781

Question: And the relative viability (LXF-289; first compound 8 µM)?
Answer: 0.749

Question: And the relative viability (NCI-H358; first compound 0.08 µM)?
Answer: 0.704

Question: And the relative viability (NCI-H358; first compound 0.253 µM)?
Answer: 0.789

Question: What about the relative viability (NCI-H358; first compound 0.8 µM) of the same compound?
Answer: 0.689

Question: What about the relative viability (NCI-H358; first compound 8 µM) of the same compound?
Answer: 0.608

Question: What about the relative viability (NCI-H1651; first compound 0.08 µM) of the same compound?
Answer: 0.55

Question: And the relative viability (NCI-H1651; first compound 0.253 µM)?
Answer: 0.58

Question: What about the relative viability (NCI-H1651; first compound 0.8 µM) of the same compound?
Answer: 0.525

Question: What about the relative viability (NCI-H1651; first compound 2.53 µM) of the same compound?
Answer: 0.522

Question: What about the relative viability (NCI-H1651; first compound 8 µM) of the same compound?
Answer: 0.509

Question: What about the relative viability (EMC-BAC-2; first compound 0.08 µM) of the same compound?
Answer: 0.462

Question: What about the relative viability (EMC-BAC-2; first compound 0.253 µM) of the same compound?
Answer: 0.407

Question: What about the relative viability (EMC-BAC-2; first compound 0.8 µM) of the same compound?
Answer: 0.276

Question: And the relative viability (EMC-BAC-2; first compound 2.53 µM)?
Answer: 0.355

Question: And the relative viability (EMC-BAC-2; first compound 8 µM)?
Answer: 0.378

Question: What about the relative viability (NCI-H2126; first compound 0.08 µM) of the same compound?
Answer: 0.721

Question: And the relative viability (NCI-H2126; first compound 0.253 µM)?
Answer: 0.92

Question: And the relative viability (NCI-H2126; first compound 0.8 µM)?
Answer: 0.792

Question: What about the relative viability (NCI-H2126; first compound 2.53 µM) of the same compound?
Answer: 0.642

Question: And the relative viability (NCI-H2126; first compound 8 µM)?
Answer: 0.744

Question: And the relative viability (NCI-H1793; first compound 0.08 µM)?
Answer: 0.674

Question: What about the relative viability (NCI-H1793; first compound 0.253 µM) of the same compound?
Answer: 1.01

Question: And the relative viability (NCI-H1793; first compound 2.53 µM)?
Answer: 0.425

Question: And the relative viability (NCI-H1793; first compound 8 µM)?
Answer: 0.751

Question: What about the relative viability (EKVX; first compound 0.08 µM) of the same compound?
Answer: 0.725

Question: And the relative viability (EKVX; first compound 0.253 µM)?
Answer: 0.827

Question: What about the relative viability (EKVX; first compound 0.8 µM) of the same compound?
Answer: 0.654

Question: What about the relative viability (EKVX; first compound 8 µM) of the same compound?
Answer: 0.728

Question: What about the relative viability (UMC-11; first compound 0.08 µM) of the same compound?
Answer: 0.38

Question: What about the relative viability (UMC-11; first compound 0.253 µM) of the same compound?
Answer: 0.497

Question: And the relative viability (UMC-11; first compound 0.8 µM)?
Answer: 0.343

Question: What about the relative viability (UMC-11; first compound 2.53 µM) of the same compound?
Answer: 0.257

Question: What about the relative viability (UMC-11; first compound 8 µM) of the same compound?
Answer: 0.294

Question: What about the relative viability (A-427; first compound 0.08 µM) of the same compound?
Answer: 0.851

Question: And the relative viability (A-427; first compound 0.253 µM)?
Answer: 0.822

Question: And the relative viability (A-427; first compound 0.8 µM)?
Answer: 0.615

Question: What about the relative viability (A-427; first compound 2.53 µM) of the same compound?
Answer: 0.755

Question: And the relative viability (A-427; first compound 8 µM)?
Answer: 0.852

Question: And the relative viability (NCI-H3122; first compound 0.08 µM)?
Answer: 1.02

Question: What about the relative viability (NCI-H3122; first compound 0.253 µM) of the same compound?
Answer: 1.6

Question: And the relative viability (NCI-H3122; first compound 0.8 µM)?
Answer: 1.01

Question: What about the relative viability (NCI-H3122; first compound 2.53 µM) of the same compound?
Answer: 0.578

Question: What about the relative viability (NCI-H3122; first compound 8 µM) of the same compound?
Answer: 0.989

Question: What about the relative viability (NCI-H2023; first compound 0.08 µM) of the same compound?
Answer: 0.653

Question: What about the relative viability (NCI-H2023; first compound 0.253 µM) of the same compound?
Answer: 0.944

Question: And the relative viability (NCI-H2023; first compound 0.8 µM)?
Answer: 0.604

Question: What about the relative viability (NCI-H2023; first compound 2.53 µM) of the same compound?
Answer: 0.6

Question: And the relative viability (NCI-H2023; first compound 8 µM)?
Answer: 0.37

Question: What about the relative viability (NCI-H322M; first compound 0.08 µM) of the same compound?
Answer: 0.859

Question: And the relative viability (NCI-H322M; first compound 0.253 µM)?
Answer: 1.32

Question: And the relative viability (NCI-H322M; first compound 0.8 µM)?
Answer: 0.851

Question: And the relative viability (NCI-H322M; first compound 8 µM)?
Answer: 0.847

Question: And the relative viability (SW 1573; first compound 0.08 µM)?
Answer: 0.976

Question: And the relative viability (SW 1573; first compound 0.253 µM)?
Answer: 0.816

Question: And the relative viability (SW 1573; first compound 0.8 µM)?
Answer: 0.701

Question: And the relative viability (SW 1573; first compound 2.53 µM)?
Answer: 0.442

Question: What about the relative viability (SW 1573; first compound 8 µM) of the same compound?
Answer: 0.517

Question: And the relative viability (EPLC-272H; first compound 0.08 µM)?
Answer: 0.477

Question: And the relative viability (EPLC-272H; first compound 0.253 µM)?
Answer: 0.545

Question: What about the relative viability (EPLC-272H; first compound 0.8 µM) of the same compound?
Answer: 0.655

Question: What about the relative viability (EPLC-272H; first compound 2.53 µM) of the same compound?
Answer: 0.41

Question: And the relative viability (EPLC-272H; first compound 8 µM)?
Answer: 0.391

Question: And the relative viability (BEN; first compound 0.08 µM)?
Answer: 0.642

Question: What about the relative viability (BEN; first compound 0.253 µM) of the same compound?
Answer: 0.574

Question: What about the relative viability (BEN; first compound 0.8 µM) of the same compound?
Answer: 0.524

Question: What about the relative viability (BEN; first compound 2.53 µM) of the same compound?
Answer: 0.647

Question: What about the relative viability (BEN; first compound 8 µM) of the same compound?
Answer: 0.606

Question: What about the relative viability (HCC-44; first compound 0.08 µM) of the same compound?
Answer: 1.1

Question: What about the relative viability (HCC-44; first compound 0.253 µM) of the same compound?
Answer: 0.994

Question: And the relative viability (HCC-44; first compound 0.8 µM)?
Answer: 1.07

Question: And the relative viability (HCC-44; first compound 2.53 µM)?
Answer: 1.13

Question: And the relative viability (HCC-44; first compound 8 µM)?
Answer: 1.07

Question: What about the relative viability (NCI-H596; first compound 0.08 µM) of the same compound?
Answer: 0.644

Question: What about the relative viability (NCI-H596; first compound 0.253 µM) of the same compound?
Answer: 0.642

Question: And the relative viability (NCI-H596; first compound 0.8 µM)?
Answer: 0.671

Question: What about the relative viability (NCI-H596; first compound 2.53 µM) of the same compound?
Answer: 0.516

Question: What about the relative viability (NCI-H596; first compound 8 µM) of the same compound?
Answer: 0.483

Question: What about the relative viability (LCLC-103H; first compound 0.08 µM) of the same compound?
Answer: 0.736

Question: And the relative viability (LCLC-103H; first compound 0.253 µM)?
Answer: 0.758

Question: What about the relative viability (LCLC-103H; first compound 0.8 µM) of the same compound?
Answer: 0.708

Question: And the relative viability (LCLC-103H; first compound 2.53 µM)?
Answer: 0.664

Question: And the relative viability (LCLC-103H; first compound 8 µM)?
Answer: 0.765

Question: What about the relative viability (NCI-H2087; first compound 0.08 µM) of the same compound?
Answer: 0.683

Question: What about the relative viability (NCI-H2087; first compound 0.253 µM) of the same compound?
Answer: 0.586

Question: And the relative viability (NCI-H2087; first compound 0.8 µM)?
Answer: 0.666

Question: What about the relative viability (NCI-H2087; first compound 2.53 µM) of the same compound?
Answer: 0.635

Question: And the relative viability (NCI-H2087; first compound 8 µM)?
Answer: 0.541

Question: What about the relative viability (NCI-H1650; first compound 0.08 µM) of the same compound?
Answer: 0.597

Question: What about the relative viability (NCI-H1650; first compound 0.253 µM) of the same compound?
Answer: 0.751

Question: And the relative viability (NCI-H1650; first compound 0.8 µM)?
Answer: 0.665

Question: What about the relative viability (NCI-H1650; first compound 8 µM) of the same compound?
Answer: 0.463

Question: And the relative viability (SK-LU-1; first compound 0.08 µM)?
Answer: 0.782

Question: And the relative viability (SK-LU-1; first compound 0.253 µM)?
Answer: 0.724

Question: What about the relative viability (SK-LU-1; first compound 0.8 µM) of the same compound?
Answer: 0.698

Question: And the relative viability (SK-LU-1; first compound 2.53 µM)?
Answer: 0.752

Question: What about the relative viability (SK-LU-1; first compound 8 µM) of the same compound?
Answer: 0.59

Question: What about the relative viability (COR-L23; first compound 0.08 µM) of the same compound?
Answer: 0.507

Question: What about the relative viability (COR-L23; first compound 0.253 µM) of the same compound?
Answer: 0.408

Question: What about the relative viability (COR-L23; first compound 0.8 µM) of the same compound?
Answer: 0.446

Question: And the relative viability (COR-L23; first compound 2.53 µM)?
Answer: 0.37

Question: And the relative viability (COR-L23; first compound 8 µM)?
Answer: 0.327

Question: And the relative viability (201T; first compound 0.08 µM)?
Answer: 0.976

Question: And the relative viability (201T; first compound 0.253 µM)?
Answer: 1.31

Question: And the relative viability (201T; first compound 0.8 µM)?
Answer: 0.91

Question: And the relative viability (201T; first compound 2.53 µM)?
Answer: 0.936

Question: And the relative viability (201T; first compound 8 µM)?
Answer: 0.979
